Where only a bound is given, the exact number is not on record here.

These results are taken from patent US20080113955A1, “TREATMENT OF INFANT HYPERBIL[…] LOW DOSAGES OF STANNSOPORFIN” (priority 2006, published 2008).

Data set [1] concerns infant hyperbilirubinemia. Nature of the data set: Low-dose administration of stannsoporfin in infants with hyperbilirubinemia (all receiving phototherapy): serum bilirubin and need for exchange transfusion. Type of data set: in vivo, human. Conditions: for # transfused pts (babies total received exchange transfusions): intramuscular, before or after treatment. How it is done: (§1) Low-dose administration of stannsoporfin was tested in a group of infants in Hanoi, Vietnam and Michigan, United States. The known and unknown risks of the proposed study intervention and the potential for direct and indirect benefit were discussed with each subject's parents or guardians. Written informed consent was obtained from a parent or guardian of each subject before enrollment in the study. The study protocol was conducted under the guidelines of current Good Clinical Practice as promulgated by the United States Food and Drug Administration and international regulatory bodies. The study was reviewed and approved by the Institutional Review Board of the William Beaumont Hospital, Royal Oak, Mich., and the Vietnamese Ministry of Health and the Ethics Review Board of the National Hospital for Pediatrics of Hanoi.
All infants received phototherapy to treat hyperbilirubinemia; thus, the group designated as “placebo” were treated with phototherapy, as were the other groups. The placebo group had 18 babies total. […] The 0.75 mg/kg stannsoporfin group had 19 babies total. […] The 1.5 mg/kg stannsoporfin group had 18 babies total. […] Treatment refers to either placebo injection or stannsoporfin injection; as previously indicated, all babies received phototherapy. The placebo used was normal physiological saline. Stannsoporfin was administered via intramuscular injection in sodium phosphate buffer at a concentration of 20 mg/ml. A vial containing 1.5 ml was used, where a dose based on birthweight of the infant and whether a 0.75 mg/kg or 1.5 mg/kg dose was withdrawn. (For example, a 5 kg birthweight baby treated at a dose of 1.5 mg/kg would receive 7.5 mg of stannsoporfin; thus, a volume of 0.375 ml from the 20 mg/ml solution would be used to provide this dose.) In the majority of cases, the infants were between 4 and 7 days of age at the time of either stannsoporfin administration or exchange transfusion. The results are shown in FIG. 1 and FIG. 2; infants receiving stannsoporfin injections who required exchange transfusions before or after treatment are not included in the data presented in FIG. 1 for any group, while babies in the stannsoporfin groups who required exchange transfusion are excluded from FIG. 2 and only babies in the placebo group that did receive exchange transfusion are included in FIG. 2.

Data set [2] can be described thus: Side effects / adverse events in the low-dose stannsoporfin infant study. Type of data set: in vivo, human. How it is done: as §1
All infants received phototherapy to treat hyperbilirubinemia; thus, the group designated as “placebo” were treated with phototherapy, as were the other groups. The placebo group had 18 babies total. […] The 0.75 mg/kg stannsoporfin group had 19 babies total. […] The 1.5 mg/kg stannsoporfin group had 18 babies total. […] Treatment refers to either placebo injection or stannsoporfin injection; as previously indicated, all babies received phototherapy. The placebo used was normal physiological saline. Stannsoporfin was administered via intramuscular injection in sodium phosphate buffer at a concentration of 20 mg/ml. A vial containing 1.5 ml was used, where a dose based on birthweight of the infant and whether a 0.75 mg/kg or 1.5 mg/kg dose was withdrawn. (For example, a 5 kg birthweight baby treated at a dose of 1.5 mg/kg would receive 7.5 mg of stannsoporfin; thus, a volume of 0.375 ml from the 20 mg/ml solution would be used to provide this dose.) In the majority of cases, the infants were between 4 and 7 days of age at the time of either stannsoporfin administration or exchange transfusion. […]

A further data set relates to jaundiced infants. The note with it: single dose of 6 umol/kg birthweight (4.5 mg/kg birthweight); cited from earlier work.
Where [3] appears, read: 0.75 mg/kg group, 19 babies total.
Setting [4] is: 1.5 mg/kg group, 18 babies total.

Consider “tin (IV) mesoporphyrin IX dichloride [stannsoporfin]”, for which the “# transfused pts (babies total received exchange transfusions)” value was 3 in data set [1] (0.75 mg/kg birthweight, N = 19, plus phototherapy) and 2 in data set [1] (1.5 mg/kg birthweight, N = 18, plus phototherapy). Also, the “babies who did not receive an exchange transfusion” value in data set [1] (setting [3]) is 16. Besides, the figures for the “babies who received an exchange transfusion after treatment” value in data set [1] (setting [3]) and in data set [1] (setting [4]) were 1 and 2, respectively. Further, the “% requiring transfusions” value in data set [1] (0.75 mg/kg, N = 19) is 16%; in data set [1] (1.5 mg/kg, N = 18), 11%. Further, the “babies who did not receive exchange transfusion” value in data set [1] (setting [4]) was 16. The “significance value P versus placebo, serum bilirubin” value in data set [1] (1.5 mg/kg, at 24 hours, FIG. 1) is on record as less than 0.05; in data set [1] (1.5 mg/kg, at 48 hours, FIG. 1) it was less than 0.001. Moreover, the “decrease in serum bilirubin compared with the exchange transfusion (placebo injection) group” value in data set [1] (1.5 mg/kg, FIG. 2) is recorded as “greater than that for the exchange transfusion group at 3 of the 4 post-treatment data points”. The “reduction of serum bilirubin versus placebo (phototherapy only)” value in data set [1] (both doses, 0.75 mg/kg and 1.5 mg/kg, babies who required exchange transfusions excluded, FIG. 1) is on record as “greater reduction of serum bilirubin than the placebo group”. The “percentage reduction in starting bilirubin levels” value in data set [1] (both stannsoporfin groups, 0.75 mg/kg and 1.5 mg/kg, babies without exchange transfusion, FIG. 2) was “substantial decrease in serum bilirubin”. Further, the “need for exchange transfusion” value in data set [1] (low-dose stannsoporfin (0.75 and 1.5 mg/kg) versus control) was “significantly decreased the need for exchange transfusion”. Also, the “adverse events considered probably or definitely related to the study treatment” value in data set [2] (all treatment groups) is on record as “None”. Besides, in data set [2] (each treatment group), the “infants who experienced at least one adverse event” value is “Greater than 60%”. Also, the “incidence, severity, seriousness, and causality of adverse events, differences among the three treatment groups” value in data set [2] (placebo, 0.75 mg/kg and 1.5 mg/kg groups) is “no statistically significant differences”. Besides, in the data set with jaundiced infants, the “need for phototherapy in jaundiced infants” value is listed as “could avoid the need for phototherapy”.
